According to patent publication US10344026B2, “Compositions and methods of targeting mutant K-ras” (NANTBIO, INC., priority 2017, dated 2019):

Experiments:
Format in all cases: cell-based
[1] = tested on: phospho-Akt in HCC827 (Wild-type); assay: In-Cell Western phospho-Akt, HCC827; conditions: Homo sapiens, 1 h; HCC827, one hour treatment; read-out: In-Cell Western HCC827 (Wild-type) Akt (P)
Experimental: In-cell phosphorylation assays for Erk and Akt were performed on several of the compounds and exemplary results are shown in Table 3 below using HCC827 and A375 cell lines for wild type K-Ras and Panc1 and Panc10.05 cell lines for G12D K-Ras mutants. Results are expressed in μM and corresponding structures are shown in FIGS. 2A-2G and Examples 1-152, above.
Cells are seeded in complete medium into black sided, clear-bottom 384-well microplates at 3000 cells/[…]/well. Plates are returned to 37° C. CO2 incubator for 18 hr. Drug is made as 200× in DMSO and diluted into medium to 10×. To each well is added 4 ul 10× test article or controls, and plates are returned to the incubator. Final assay DMSO concentration is 0.5%. After one hour, cells are fixed in formaldehyde, rinsed & permeabilized with triton X-100, and blocked with BSA/Goat serum blocking solution. Primary phospho-Akt and phospho-ERK antibodies are added and plates are incubated overnight at 4° C. Plates are rinsed with Tween-20 wash buffer and secondary antibody (Goat anti-rabbit, Thermofisher) is added. After 2 hours, plates are rinsed in Tween-20 wash buffer, and then PBS. Plates are imaged on the Celigo (Nexcelom) and cellular fluorescence is quantitated. Full inhibition of phospho-Akt is achieved with 1 uM BEZ235 (Sellekchem), while full inhibition of phospho-ERK is achieved with 1 uM MEK Inhibitor II Calbiochem). EC50 values are calculated using Graphpad Prism.

Panc10.05-G12D = assay: Viability assay (CellTiterBlue, 72 hr) Panc10.05; conditions: Homo sapiens, Panc1005, GI50, CellTiterBlue, Panc10.05 K-Ras G12D, read-out: 72 hr Cell Viability Panc10.05 (G12D)
Outline: (§1)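 Fluorescence at Ex550/Em590, read 3 hr after CellTiterBlue addition, served as the viability signal following 72 hr compound treatment. Wells held 1000 cells, pre-incubated 18 hr at 37 °C, with 0.5% DMSO final. GI50 derived with DMSO as 100% and 100 uM tamoxifen as 0% viability.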

K-Ras G12D = target: T1, K-Ras G12D (Homo sapiens, UniProt P01116, G12D); assay: G-LISA Ras activation, 293H cells transfected with G12D mutant; conditions: compound 1 hour
T1 construct: expressed in transfected cells; host or cells: 293H cells
Outline: (§2)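 Seed 293H cells, transfect with Ras wild-type or mutant vector, treat with compound (3.125-25 μM, 1 h), stimulate wild-type cells with EGF (100 ng/ml, 2 min), lyse in ice-cold buffer, then measure GTP-Ras by G-LISA.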

[2] = tested on: phospho-ERK in HCC827 (Wild-type); assay: In-Cell Western phospho-ERK, HCC827; conditions: Homo sapiens, 1 h; HCC827, one hour treatment; read-out: In-Cell Western HCC827 (Wild-type) Erk (P)
Outline: (§3)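 One-hour compound treatment of cells plated a day earlier, 0.5% DMSO. Phospho-signal detected by in-cell immunofluorescence imaging; EC50 calculated.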

[3] = tested on: U87-MG (K-Ras wild type cell line); assay: Viability assay (CellTiterBlue, 72 hr) U87-MG; conditions: Homo sapiens, U-87 MG, GI50, CellTiterBlue, U87-MG K-Ras wild-type
Outline: as §1

[4] = tested on: HCC827 (K-Ras wild type cell line); assay: Viability assay (CellTiterBlue, 72 hr) HCC827; conditions: Homo sapiens, GI50, CellTiterBlue, HCC827 K-Ras wild-type
Outline: as §1

wild type K-Ras = target: T2, wild type K-Ras (Homo sapiens, UniProt P01116); assay: G-LISA Ras activation, 293H cells transfected with Ras wild-type, EGF stimulated; conditions: compound 1 hour, then 100 ng/ml EGF 2 minutes
T2 construct: expressed in transfected cells; host or cells: 293H cells
Outline: as §2

[5] = tested on: phospho-Akt in Panc1 (G12D); assay: In-Cell Western phospho-Akt, Panc1; conditions: Homo sapiens, PANC-1, 1 h; Panc1, one hour treatment; read-out: In-Cell Western Panc1 (G12D) Akt (P)
Outline: as §3

HCT116-G31D = assay: Viability assay (CellTiterBlue, 72 hr) HCT116; conditions: Homo sapiens, HCT-116, GI50, CellTiterBlue, HCT116 K-Ras G13D, read-out: 72 hr Cell Viability HCT116 (G13D)
Outline: as §1

[6] = tested on: phospho-ERK in Panc1 (G12D); assay: In-Cell Western phospho-ERK, Panc1; conditions: Homo sapiens, PANC-1, 1 h; Panc1, one hour treatment; read-out: In-Cell Western Panc1 (G12D) Erk (P)
Outline: as §3

[7] = tested on: Ishikawa (K-Ras wild type cell line); assay: Viability assay (CellTiterBlue, 72 hr) Ishikawa; conditions: Homo sapiens, GI50, CellTiterBlue, Ishikawa K-Ras wild-type
Outline: as §1

Panc1-G12D = assay: Viability assay (CellTiterBlue, 72 hr) Panc1; conditions: Homo sapiens, PANC-1, GI50, CellTiterBlue, Panc1 K-Ras G12D, read-out: 72 hr Cell Viability Panc1 (G12D)
Outline: as §1

[8] = tested on: phospho-Akt in Panc10.05 (G12D); assay: In-Cell Western phospho-Akt, Panc10.05; conditions: Homo sapiens, Panc1005, 1 h; Panc10.05, one hour treatment; read-out: In-Cell Western Panc10.05 (G12D) Akt (P)
Outline: as §3

[9] = tested on: phospho-ERK in Panc10.05 (G12D); assay: In-Cell Western phospho-ERK, Panc10.05; conditions: Homo sapiens, Panc1005, 1 h; Panc10.05, one hour treatment; read-out: In-Cell Western Panc10.05 (G12D) Erk (P)
Outline: as §3

T2 sequence (P01116 whole entry): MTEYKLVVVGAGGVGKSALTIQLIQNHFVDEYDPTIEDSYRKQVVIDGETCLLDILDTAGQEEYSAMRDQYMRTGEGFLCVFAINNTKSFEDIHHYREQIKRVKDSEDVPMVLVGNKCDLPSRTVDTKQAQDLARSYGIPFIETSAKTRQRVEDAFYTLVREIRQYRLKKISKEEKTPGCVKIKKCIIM
T1 sequence (P01116 whole entry G12D): as the sequence (P01116 whole entry) above, with G12D counted along it

Row | SMILES | EC50 [1] | IC50 (Panc10.05-G12D) | IC50 (K-Ras G12D) | EC50 [2] | IC50 [3] | IC50 [4] | IC50 (wild type K-Ras) | EC50 [5] | IC50 (HCT116-G31D) | EC50 [6] | IC50 [7] | IC50 (Panc1-G12D) | EC50 [8] | EC50 [9]
1 | CCn1nc(C)c(C(=O)Nc2nc(-c3ccc4c(c3)CCC(=O)N4)cs2)c1C [Compound 41, 1-ethyl-3,5-dimethyl-N-(4-(2-oxo-1,2,3,4-tetrahydroquinolin-6-yl)thiazol-2-yl)-1H-pyrazole-4-carboxamide] | > 25 µM | 19 µM | 4.3 µM | 22 µM | 7 µM | 6 µM | 7.5 µM | 3 µM | > 25 µM | 2 µM | 18 µM | 12 µM | – | –
2 | Cc1nc(C2CC2)oc1C(=O)Nc1nc(-c2ccc3c(c2)CCC(=O)N3Cc2cccnc2)cs1 [Compound 72, 2-cyclopropyl-4-methyl-N-(4-(2-oxo-1-(pyridin-3-ylmethyl)-1,2,3,4-tetrahydroquinolin-6-yl)thiazol-2-yl)oxazole-5-carboxamide] | 19 µM | 2 µM | 8 µM | 14 µM | – | > 25 µM | 8 µM | 2 µM | > 25 µM | 3 µM | 2 µM | 13 µM | 19 µM | 5 µM
3 | Cc1nn(C)c(C)c1C(=O)Nc1nc(-c2ccc3c(c2)CCC(=O)N3)cs1 [Compound 40, 1,3,5-trimethyl-N-(4-(2-oxo-1,2,3,4-tetrahydroquinolin-6-yl)thiazol-2-yl)-1H-pyrazole-4-carboxamide] | 25 µM | > 25 µM | 6.1 µM | > 25 µM | 9 µM | 7 µM | 23.3 µM | 7 µM | > 25 µM | 8 µM | > 25 µM | 24 µM | – | –
4 | Cc1nc(C)c(C(=O)Nc2nc(-c3ccc4c(c3)CCC(=O)N4CC3CCOC3)cs2)o1 (stereo not drawn) [Compound 67, 2,4-dimethyl-N-(4-(2-oxo-1-((tetrahydrofuran-3-yl)methyl)-1,2,3,4-tetrahydroquinolin-6-yl)thiazol-2-yl)oxazole-5-carboxamide] | 10 µM | 2 µM | 8 µM | 4 µM | – | 3 µM | > 25 µM | – | 2 µM | 3 µM | 2 µM | 4 µM | 23 µM | 6 µM
5 | Cc1nn(C(C)C)cc1C(=O)Nc1nc(-c2ccc3c(c2)CCC(=O)N3)cs1 [Compound 36, 1-isopropyl-3-methyl-N-(4-(2-oxo-1,2,3,4-tetrahydroquinolin-6-yl)thiazol-2-yl)-1N-pyrazole-4-carboxamide] | > 25 µM | 3 µM | 7 µM | 20 µM | > 25 µM | > 25 µM | 18.3 µM | 15 µM | > 25 µM | 2 µM | 7 µM | 14 µM | – | –
6 | CCn1ncc(C(=O)Nc2nc(-c3ccc4c(c3)CCC(=O)N4)cs2)c1C1CC1 [Compound 33, 5-cyclopropyl-1-ethyl-N-(4-(2-oxo-1,2,3,4-tetrahydroquinolin-6-yl)thiazol-2-yl)-1H-pyrazole-4-carboxamide] | > 25 µM | > 25 µM | > 25 µM | > 25 µM | > 25 µM | > 25 µM | – | > 25 µM | > 25 µM | > 25 µM | > 25 µM | > 25 µM | – | –
7 | Cn1cc(C(=O)Nc2nc(-c3ccc4c(c3)CCC(=O)N4)cs2)c(C(F)(F)F)n1 [Compound 30, 1-methyl-N-(4-(2-oxo-1,2,3,4-tetrahydroquinolin-6-yl)thiazol-2-yl)-3-(trifluoromethyl)-1H-pyrazole-4-carboxamide] | > 25 µM | 23 µM | > 25 µM | 16 µM | > 25 µM | > 25 µM | – | > 25 µM | > 25 µM | 8 µM | 18 µM | > 25 µM | – | –
8 | CCc1nn(C)cc1C(=O)Nc1nc(-c2ccc3c(c2)CCC(=O)N3)cs1 [Compound 37, 3-ethyl-1-methyl-N-(4-(2-oxo-1,2,3,4-tetrahydroquinolin-6-yl)thiazol-2-yl)-1H-pyrazole-4-carboxamide] | > 25 µM | > 25 µM | > 25 µM | > 25 µM | 6 µM | 7 µM | – | 26 µM | > 25 µM | > 25 µM | > 25 µM | > 25 µM | – | –
9 | CCn1cc(C(=O)Nc2nc(-c3ccc4c(c3)CCC(=O)N4)cs2)cn1 [Compound 34, 1-ethyl-N-(4-(2-oxo-1,2,3,4-tetrahydroquinolin-6-yl)thiazol-2-yl)-1H-pyrazole-4-carboxamide] | > 25 µM | 7 µM | 15.8 µM | > 25 µM | > 25 µM | > 25 µM | – | > 25 µM | > 25 µM | 15 µM | 9 µM | > 25 µM | – | –
10 | Cc1nc(C)c(C(=O)Nc2nc(-c3ccc4c(c3)CCC(=O)N4Cc3cccnc3)cs2)o1 [Compound 70, 2,4-dimethyl-N-(4-(2-oxo-1-(pyridin-3-ylmethyl)-1,2,3,4-tetrahydroquinolin-6-yl)thiazol-2-yl)oxazole-5-carboxamide] | 19 µM | 7 µM | 8.3 µM | 22 µM | – | > 25 µM | > 25 µM | 22 µM | > 25 µM | 10 µM | 24 µM | 20 µM | > 25 µM | 25 µM
11 | Cc1nc(C2CCOC2O)sc1C(=O)Nc1nc(-c2ccc3c(c2)CCC(=O)N3Cc2cccnc2)cs1 (stereo not drawn) [Compound 71, 2-(2-hydroxytetrahydrofuran-3-yl)-4-methyl-N-(4-(2-oxo-1-(pyridin-3-ylmethyl)-1,2,3,4-tetrahydroquinolin-6-yl)thiazol-2-yl)thiazole-5-carboxamide] | 27 µM | 6 µM | – | 16 µM | – | 7 µM | – | 18 µM | 9 µM | 25 µM | 6 µM | 22 µM | > 25 µM | 16 µM
